# Test results taken from publication PMC11279807, “Modulation of the Antimelanoma Activity Imparted to Artemisinin Hybrids by the Monoterpene Counterpart” (Molecules, 2024).
# Read-outs that look alike come from different tables or passages of the source.
# How the values were obtained:
# C3PV = experiment: MTT cell viability assay on normal fibroblasts C3PV; type: cell-based, human; conditions: 24 h treatment, triplicates, read-out: IC50 (µM ± SD) C3PV
# Method: (§1) The primary human healthy fibroblast C3PV cell line was grown in a culture medium containing 50% Dulbecco Modified Medium (DMEM) and 50% Ham’s F10 supplemented with 10% Fetal Bovine Serum (FBS). […] To all growing media were added 1% Pen/Strep and 1% Glutamine.
# To study the effect of artemisinin derivatives on cell viability, MTT assay was performed. Briefly, C3PV, WM115, and WM266 cell lines were seeded in 96-well plates (3000 cells/well in 100 μL of medium) 24 h before treatment and incubated overnight to allow for cell adherence. […] The analyses of cell viability were performed at the end of the treatment. Triplicates were made in all experiments. After 24 h of treatment with newly synthesized compounds, the culture medium was replaced with a solution containing 0.5 mg/mL of MTT. After 3 h of incubation in an incubator, the medium was removed, and a lysis solution (10% SDS, 0.6% acetic acid in DMSO) was added to dissolve the formazan crystals. Optical density measurements were performed with a microplate reader EPOCH/2 (Biotek) with 630 nm (background) and a 570 nm filters.
# (§2) The IC50 values were determined via non-linear regression, using the GraphPad Prism software package version 8 (GraphPad Software, San Diego, CA, USA). Results were expressed as means of IC50 values ± SD. The TSI values were calculated using the following formula: […]
# WM115 = experiment: MTT cell viability assay on primary melanoma cell line WM115; type: cell-based, human; conditions: for IC50: primary melanoma WM115, MTT, 24 h treatment, triplicates, read-out: IC50 (µM ± SD) WM115; for TSI WM115: tumor selectivity index = IC50 on C3PV / IC50 on WM115
# Method: as §1
# (§3) To study the effect of artemisinin derivatives on cell viability, MTT assay was performed. Briefly, C3PV, WM115, and WM266 cell lines were seeded in 96-well plates (3000 cells/well in 100 μL of medium) 24 h before treatment and incubated overnight to allow for cell adherence. Afterward, the medium was replaced with a fresh one containing the appropriate dose of newly synthesized compounds (doses ranging from 0.01 to 1 μM were used for 24 h). The analyses of cell viability were performed at the end of the treatment. Triplicates were made in all experiments. After 24 h of treatment with newly synthesized compounds, the culture medium was replaced with a solution containing 0.5 mg/mL of MTT. After 3 h of incubation in an incubator, the medium was removed, and a lysis solution (10% SDS, 0.6% acetic acid in DMSO) was added to dissolve the formazan crystals. Optical density measurements were performed with a microplate reader EPOCH/2 (Biotek) with 630 nm (background) and a 570 nm filters.
# as §2
# WM266 [1] = experiment: MTT cell viability assay on metastatic melanoma cell line WM266; type: cell-based, human; conditions: for TSI WM266: tumor selectivity index = IC50 on C3PV / IC50 on WM266
# Method: as §1, §3, §2
# WM266 [2] = experiment: Cell viability assay in the presence or absence of DFO on WM266; type: cell-based; conditions: Homo sapiens, treatment time 48 h
# Excerpt: To obtain information about the mode of action of compounds 9c, 9f, 10b, and 10f, we repeated the cell viability assays on the metastatic cancer line WM266 in the presence of the Fe^2+ chelating agent deferoxamine (DFO). As mentioned above, Fe^2+ ions trigger endoperoxide bridge opening of the sesquiterpene counterpart by Fenton-like mechanisms, leading to the formation of carbon- and oxygen-centered radicals. Usually, this in cell formation of single-electron reactive species seems to be responsible for the biological activity of ART and its semisynthetic and hybrid derivatives. Sequestration of Fe^2 by DFO generally reduces the efficacy of the compounds studied.
# DFO was used to study the mode of action of compounds 9c, 9f, 10b, and 10f on WM266 cell line. Twenty-four hours before treatment, cells were seeded in 96-well plates and incubated overnight. Then, cells were pre-treated with 20 μM of DFO for 1 h. After this time, two washes with PBS were performed, and, subsequently, fresh medium containing different doses of the opportune compound was added for 48h. The analyses of cell viability were performed at the end of treatment, and triplicates were made in all experiments.
# [3] = Stability by NMR analyses after heating; type: physicochemical; conditions: after heating at 45 and 100 °C for 8 and 2 h, respectively
# Method: Based on cellular results, hybrids 9c, 9f, 10b, and 10f were selected for further studies. Their stability was evaluated by NMR analyses after heating them at 45 and 100 °C for 8 and 2 h, respectively (Supplementary Materials S1).
# [4] = Homo sapiens, WM266, 24 h, metastatic melanoma WM266, MTT, 24 h treatment, triplicates, read-out: IC50 (µM ± SD) WM266
# [5] = metastatic melanoma WM266, MTT, 24 h treatment, triplicates, read-out: IC50 (µM ± SD) WM266
"IC50 (WM115; Homo sapiens, WM-115, 24 h)",IC50 (WM266 [1]; [4]),Structure (SMILES),"IC50 (C3PV; Homo sapiens, C3PV, 24 h)",TSI WM115 (WM115),TSI WM266 (WM266 [1]),other results
1.7 ± 0.5 µM,1.3 ± 0.8 µM,CC(C)=CCCC(C)CCOC(=O)CCC(=O)OC1OC2OC3(C)CCC4C(C)CCC(C1C)C24OO3 (centres unmarked) [Hybrid 10d],4.8 ± 0.9 µM,2.8,3.7,
0.03 ± 0.01 µM,0.02 ± 0.01 µM,C=C(C)C1CC=C(COC(=O)CCC(=O)OC2OC3OC4(C)CCC5C(C)CCC(C2C)C35OO4)CC1 (centres unmarked) [Hybrid 10b],20.3 ± 5.5 µM,676.7,1015.0,"IC50 (WM266 [1]; Homo sapiens, WM266, reference hybrid on WM266, as printed in Table 2, read-out: IC50 ± SD R.H.): 0.02 ± 0.01 µM; IC50 (WM266 [2]; WM266, pre-treated with 20 μM DFO for 1 h, read-out: IC50 ± SD WM266 with DFO): 310 ± 100 nM; IC50 (WM266 [2]; WM266, without DFO, read-out: IC50 ± SD WM266 without DFO): 20 ± 10 nM; decomposition by 1H NMR [3]: less than 5%"
2.9 ± 0.6 µM,2.7 ± 0.2 µM,CC(C)=CCC[C@@H](C)CCO[C@H]1O[C@@H]2O[C@@]3(C)CC[C@H]4[C@H](C)CC[C@@H]([C@H]1C)[C@@]24OO3 [Hybrid 9d],51 ± 0.3 µM,17.6,18.9,
2.4 ± 0.1 µM,2.2 ± 0.6 µM,CC(C)=CCC[C@H](C)CCO[C@H]1O[C@@H]2O[C@@]3(C)CC[C@H]4[C@H](C)CC[C@@H]([C@H]1C)[C@@]24OO3 [Hybrid 9e],50 ± 0.03 µM,20.8,22.7,
,76.3 ± 9.5 µM,CC(C)=CCCC(C)=CCOC1OC2OC3(C)CCC4C(C)CCC(C1C)C24O3 (centres unmarked) [Hybrid 11f],,,,"fold lower antimelanoma effect compared to the corresponding compounds 9c and f (WM266 [1]; WM266, 2-deoxy analogue vs. corresponding DHA hybrid): 40 fold"
1.3 ± 0.9 µM,0.6 ± 0.02 µM,CC(C)=CCCC(C)CCOC(=O)CCC(=O)OC1OC2OC3(C)CCC4C(C)CCC(C1C)C24OO3 (mixture of isomers) [Hybrid 10c],4.4 ± 2.9 µM,3.4,7.3,
0.2 ± 0.01 µM,0.2 ± 0.01 µM,C=C(C)C1CC=C(CO[C@H]2O[C@@H]3O[C@@]4(C)CC[C@H]5[C@H](C)CC[C@@H]([C@H]2C)[C@@]35OO4)CC1 (some centres unmarked) [Hybrid 9b],0.3 ± 0.1 µM,1.5,1.5,
14.5 ± 1.1 µM,13.4 ± 1.5 µM,CC(C)=CCC/C(C)=C/CO[C@H]1O[C@@H]2O[C@@]3(C)CC[C@H]4[C@H](C)CC[C@@H]([C@H]1C)[C@@]24OO3 [Hybrid 9g],6.2 ± 0.7 µM,0.4,0.5,
,35.1 ± 2.5 µM,CC(C)=CCCC(C)CCOC1OC2OC3(C)CCC4C(C)CCC(C1C)C24O3 (centres unmarked) [Hybrid 11c],,,,
1.5 ± 0.8 µM,0.6 ± 0.1 µM,C=CCc1ccc(OC(=O)CCC(=O)OC2OC3OC4(C)CCC5C(C)CCC(C2C)C35OO4)c(OC)c1 (centres unmarked) [Hybrid 10a],1.6 ± 0.3 µM,1.1,2.7,
0.1 ± 0.01 µM,1 ± 0.09 µM,C=CCc1ccc(O[C@H]2O[C@@H]3O[C@@]4(C)CC[C@H]5[C@H](C)CC[C@@H]([C@H]2C)[C@@]35OO4)c(OC)c1 [Hybrid 9a],0.7 ± 0.04 µM,7.0,0.7,

# The remaining lines, values behind:
Structure (SMILES),"IC50 (WM115; Homo sapiens, WM-115, 24 h)",IC50 (WM266 [1]; [4]),"IC50 (C3PV; Homo sapiens, C3PV, 24 h)",TSI WM115 (WM115),TSI WM266 (WM266 [1]),other results
CC(C)=CCCC(C)CCOC(=O)CCC(=O)OC1OC2OC3(C)CCC4C(C)CCC(C1C)C24OO3 (centres unmarked) [Hybrid 10e],,,,2.7,3.2,IC50 (C3PV): 5.1 ± 1.7 µM; IC50 (WM115): 1.9 ± 0.6 µM; IC50 (WM266 [1]; [5]): 1.6 ± 0.9 µM
"C[C@H]1[C@@H](O)O[C@@H]2O[C@@]3(C)CC[C@H]4[C@H](C)CC[C@@H]1[C@@]24OO3 [DHA 2, dihydroartemisinin, reference compound]",1.6 ± 0.4 µM,1.6 ± 0.03 µM,0.7 ± 0.19 µM,0.4,0.4,
"CC(=O)O[C@H]1C(=O)[C@@]2(C)[C@H]([C@H](OC(=O)c3ccccc3)[C@]3(O)C[C@H](OC(=O)[C@H](O)[C@@H](NC(=O)c4ccccc4)c4ccccc4)C(C)=C1C3(C)C)[C@]1(OC(C)=O)CO[C@@H]1C[C@@H]2O [PTX, paclitaxel, reference compound]",2.3 ± 0.7 µM,0.9 ± 0.04 µM,78.9 ± 0.8 µM,34.3,87.7,
"CC(C)=CCC[C@H](C)CCO [(-)-citronellol (-)-6, (-)-citronellol, reference compound]",0.9 ± 0.03 µM,0.5 ± 0.3 µM,1 ± 0.9 µM,1.1,2.0,
"C[C@H]1[C@H](OC(=O)CCC(=O)O)O[C@@H]2O[C@@]3(C)CC[C@H]4[C@H](C)CC[C@@H]1[C@@]24OO3 [ARTA 3, artesunic acid, reference compound]",1.5 ± 0.01 µM,1.3 ± 0.2 µM,1.7 ± 0.44 µM,1.1,1.3,
"CC(C)=CCC/C(C)=C\CO [Nerol 7, nerol, reference compound]",1.4 ± 0.03 µM,0.5 ± 0.01 µM,3.8 ± 1.5 µM,2.7,7.6,
CC(C)=CCCC(C)=CCOC(=O)CCC(=O)OC1OC2OC3(C)CCC4C(C)CCC(C1C)C24OO3 (centres unmarked) [Hybrid 10g],,,,1.6,2.4,IC50 (C3PV): 2.4 ± 0.9 µM; IC50 (WM115): 1.5 ± 0.7 µM; IC50 (WM266 [1]; [5]): 1 ± 0.1 µM
"CC(C)=CCC[C@@H](C)CCO [(+)-citronellol (+)-6, (+)-citronellol, reference compound]",1.5 ± 0.07 µM,0.6 ± 0.02 µM,1.9 ± 0.8 µM,1.3,3.2,
"C=C(C)[C@@H]1CC=C(CO)CC1 [Perillyl alcohol 5, perillyl alcohol, reference compound]",1.2 ± 0.02 µM,0.6 ± 0.04 µM,52.5 ± 9.5 µM,43.8,87.5,
"CC(C)=CCC/C(C)=C/CO [Geraniol 8, geraniol, reference compound]",0.5 ± 0.01 µM,0.5 ± 0.09 µM,0.5 ± 0.02 µM,1.0,1.0,
"C=CCc1ccc(O)c(OC)c1 [Eugenol 4, eugenol, reference compound]",,,,0.3,1.1,"IC50 (C3PV; Homo sapiens): 1 ± 0.1 µM; IC50 (WM115; Homo sapiens, WM-115): 3 ± 0.02 µM; IC50 (WM266 [1]; Homo sapiens, metastatic melanoma WM266, MTT, 24 h treatment, triplicates, read-out: IC50 (µM ± SD) WM266): 0.9 ± 0.05 µM"
"CC(C)=CCCC(C)CCO (racemic) [(±)-citronellol (±)-6, (±)-citronellol, reference compound]",2.6 ± 0.05 µM,0.3 ± 0.23 µM,3 ± 1.2 µM,1.2,10.0,TSI WM266 (WM266 [1]; listed as citronellol (±)-6): 10
